≈ marks a conversion by molar mass, not a printed value. Where “and” joins values, the source holds several entries; their conditions need not be identical. Equal values may be shown once. Read-outs that look alike come from different tables or passages of the source.
Experiments:
Format in all cases: cell-based
[1] = test system: Pseudomonas aeruginosa ATCC 27853 (GN_042); assay: MIC micro-broth dilution assay (Example 1 method); details: for MIC: ATCC27853
[2] = test system: Acinetobacter baumannii 03.021.1 (GN_039), Colistin resistant; assay: MIC micro-broth dilution assay (Example 1 method); details: replicates
Method: (§1) Analysis was performed using Microsoft Excel.

[3] = test system: Acinetobacter baumannii 03.021.1 (GN_038), Colistin resistant; assay: Synergy of cannabidiol with cell-wall disrupting agent (CBD MIC in combination, FICI); details: for MIC: Acinetobacter baumannii
Method: (§2) The compounds were stored short term at 4° C.
as §1

[4] = test system: Klebsiella pneumoniae ATCC 13883 (GN_003 / GN_004); assay: as above; details: Klebsiella pneumoniae ATCC 700603
Method: as §2, §1

[5] = Example 9, GN_038, listed as CBD
[6] = CBD with MCC_6442, listed as CBD

With `C=C(C)C1CCC(C)=CC1c1c(O)cc(CCCCC)cc1O` (stereo not shown) [Cannabidiol, 2-[3-methyl-6-(1-methylethenyl)-2-cyclohexen-1-yl]-5-pentyl-1,3-benzenediol] the MIC ([1]; CBD alone, Pseudomonas aeruginosa ATCC 27853, read-out: CBD MIC) was 256 µg/mL (≈ 814 µM), the “CBD MIC” value ([1]; CBD alone) was 256 µg/mL and the “Minimal Inhibitory Concentration (MIC)” value ([1]; Example 1 Table 3, GN_042, compound alone, replicates) was >256 µg/mL. The “Minimum Inhibitory Concentration (MIC)” value ([1]; Example 6 Table 23, GN_042, compound alone, replicates) was >256 µg/mL, the “CBD MIC” value ([1]; Pseudomonas aeruginosa ATCC 27853, CBD alone) was 256 µg/mL and the MIC ([1]; Pseudomonas aeruginosa, Example 1 Table 3, GN_042, compound alone, replicates, read-out: Minimal Inhibitory Concentration (MIC)) was > 256 µg/mL. The MIC ([1]; Pseudomonas aeruginosa, Example 6 Table 23, GN_042, compound alone, replicates, read-out: Minimum Inhibitory Concentration (MIC)) was > 256 µg/mL, the MIC ([2]; Acinetobacter baumannii, Example 8 Table 31, compound alone, read-out: Minimum Inhibitory Concentration (MIC)) was > 256 µg/mL and the “Minimum Inhibitory Concentration (MIC)” value ([2]; Example 8 Table 31, compound alone) was >256 µg/mL. The “Minimum Inhibitory Concentration (MIC)” value ([2]; Example 9 Table 35, compound alone) was >256 µg/mL, the MIC ([3]; read-out: CBD MIC with MCC_00636 at concentration 0.25 μg/mL, Example 8, GN_038) was 2 µg/mL and the MIC ([3]; read-out: CBD MIC with MCC_00636 at concentration 0.5 μg/mL, Example 8, GN_038) was 0.000977 µg/mL. The MIC ([3]; read-out: CBD MIC with MCC_00636 at concentration […], Example 8, GN_038) was 32 µg/mL, the MIC ([3]; read-out: CBD MIC with MCC_09222 at concentration 8 μg/mL, Example 9, GN_038) was 4 µg/mL and the MIC ([3]; read-out: CBD MIC with MCC_09222 at concentration 16 μg/mL, Example 9, GN_038) was 2 µg/mL. For the same molecule, the MIC ([3]; read-out: CBD MIC with MCC_09222 at concentration 32 μg/mL, Example 9, GN_038) was 1 µg/mL, the MIC ([3]; read-out: CBD MIC with MCC_09222 at concentration 64 μg/mL, Example 9, GN_038) was 0.000977 µg/mL and the MIC ([3]; read-out: CBD MIC with MCC_09222 at concentration 128 μg/mL, Example 9, GN_038) was 0.000977 µg/mL. For the same molecule, the “cannabidiol combined with Polymyxin B: synergy” value ([3]; Example 8) was “synergy”, the “CBD MIC with MCC_00636 at concentration 0.25 μg/mL” value ([3]; Example 8, GN_038, listed as CBD) was 4 µg/mL and the “cannabidiol in combination with MCC_09222: synergy” value ([3]; Example 9) was “synergistic effect”. For the same molecule, the “CBD MIC with MCC_09222 at concentration 8 μg/mL” value [3, 5] was 2 µg/mL, the “CBD MIC with MCC_09222 at concentration 32 μg/mL” value [3, 5] was 0.5 µg/mL and the “FICI range (MIC table)” value ([4]; CBD with Cefotetan, listed as CBD) was 1-1.5 and 0.5-1.25. For the same molecule, the FICI ([4]; CBD with Ceftazidime at 4 μg/mL, listed as CBD) was 1, the FICI ([4]; CBD with Ceftazidime at 8 μg/mL, listed as CBD) was 1 and the FICI ([4]; CBD with Ceftazidime at 16 μg/mL, listed as CBD) was 1.001 and 1. For the same molecule, the FICI ([4]; CBD with Ceftazidime at 32 μg/mL, listed as CBD) was 1.002 and 1.001, the FICI ([4]; CBD with Ceftazidime at 64 μg/mL, listed as CBD) was 0.00391 and 0.001957 and the FICI ([4]; CBD with Ceftazidime at 128 μg/mL, listed as CBD) was 0.007816 and 0.00391. The “FICI range (MIC table)” value ([4]; CBD with Ceftazidime) was 0-1, the FICI ([4]; CBD with Cefuroxime at 1 μg/mL) was 1.016 and the FICI ([4]; CBD with Cefuroxime at 2 μg/mL) was 1.031. The FICI ([4]; CBD with Cefuroxime at 4 μg/mL) was 1.0625, the FICI ([4]; CBD with Cefuroxime at 8 μg/mL) was 1.125 and the FICI ([4]; CBD with Cefuroxime at 16 μg/mL) was 1.25. It also gave an FICI ([4]; CBD with Cefuroxime at 32 μg/mL) of 0.5, an FICI ([4]; CBD with Colistin at 0.031 μg/mL) of 1.03 and an FICI ([4]; CBD with Colistin at 0.062 μg/mL) of 1.06. It also gave an FICI ([4]; CBD with Colistin at 0.25 μg/mL) of 1.25, an FICI ([4]; CBD with Colistin at 0.5 μg/mL) of 0.5 and an FICI ([4]; CBD with Colistin at 1 μg/mL) of 1. For the same molecule, the “FICI range (MIC table)” value ([4]; CBD with Colistin) was 0.5-1.25, the “FICI range (Synergy table)” value ([4]; CBD with Colistin) was 0.5-1.25 and the “FICI range (MIC table)” value [4, 6] was 0.25-1.13 and 0.13-1.06. The “FICI range (Synergy table)” value [4, 6] was 0.25-0.5 and 0.13-0.25, the FICI ([4]; CBD with MCC_6442 at 0.25 μg/mL) was 1.031 and the FICI ([4]; CBD with MCC_6442 at 0.25 μg/mL, listed as CBD) was 1.016. For the same molecule, the FICI ([4]; CBD with MCC_6442 at 0.5 μg/mL, listed as CBD) was 1.0625 and 1.031, the FICI ([4]; CBD with MCC_6442 at 1 μg/mL, listed as CBD) was 1.125 and 1.0625 and the FICI ([4]; CBD with MCC_6442 at 2 μg/mL, listed as CBD) was 0.2539 and 0.1289. The FICI ([4]; CBD with MCC_6442 at 4 μg/mL, listed as CBD) was 0.501 and 0.251, the FICI ([4]; CBD with Ticarcillin at 2 μg/mL) was 1.002 and the FICI ([4]; CBD with Ticarcillin at 4 μg/mL) was 1.004. It also gave an FICI ([4]; CBD with Ticarcillin at 16 μg/mL) of 1.016, an FICI ([4]; CBD with Ticarcillin at 32 μg/mL) of 1.031 and an FICI ([4]; CBD with Ticarcillin at 64 μg/mL) of 1.0625. For the same molecule, the “FICI range (MIC table)” value ([4]; CBD with Ticarcillin) was 1-1.06, the “CBD MIC with Cefotetan” value ([4]; Cefotetan at 0.015 μg/mL) was >256 µg/mL and the “CBD MIC with Cefotetan” value ([4]; Cefotetan at 0.031 μg/mL) was >256 µg/mL. The “CBD MIC with Cefotetan” value ([4]; Cefotetan at 0.062 μg/mL) was >256 µg/mL, the “CBD MIC with Cefotetan” value ([4]; Cefotetan at 0.25 μg/mL) was >256 µg/mL and the “CBD MIC with Cefotetan” value ([4]; Cefotetan at 0.5 μg/mL) was 0.001 µg/mL. For the same molecule, the “CBD MIC with Ceftazidime” value ([4]; Ceftazidime at 0.015 μg/mL as headed in Table 64) was >256 µg/mL, the “CBD MIC with Ceftazidime” value ([4]; Ceftazidime at 0.031 μg/mL as headed in Table 64) was >256 µg/mL and the “CBD MIC with Ceftazidime” value ([4]; Ceftazidime at 0.062 μg/mL as headed in Table 64) was >256 µg/mL. For the same molecule, the “CBD MIC with Ceftazidime” value ([4]; Ceftazidime at 0.25 μg/mL as headed in Table 64) was 0.001 µg/mL.

Reference: patent publication US20230013669A1, “Antibacterial Treatment Using a Cannabinoid and an Active Agent” (priority 2019, published 2023)
